Test results: US11572590B2, “Methods for evaluating tumor cell spheroids using 3D microfluidic cell culture device” (Dana-Farber Cancer Institute, Inc., priority 2017, dated 2023)
Where two headings read alike, the source gives them in different places.

How the values were obtained:
Assay in all cases: SelectScreen Kinase Profiling, single point inhibition and IC50 for off-target kinases
Assay type in all cases: biochemical
[1] = target: T1, off-target kinases (Homo sapiens, UniProt P15735); settings: PHKG2, ATP Km app, ZLYTE
T1 sequence (P15735 1-406): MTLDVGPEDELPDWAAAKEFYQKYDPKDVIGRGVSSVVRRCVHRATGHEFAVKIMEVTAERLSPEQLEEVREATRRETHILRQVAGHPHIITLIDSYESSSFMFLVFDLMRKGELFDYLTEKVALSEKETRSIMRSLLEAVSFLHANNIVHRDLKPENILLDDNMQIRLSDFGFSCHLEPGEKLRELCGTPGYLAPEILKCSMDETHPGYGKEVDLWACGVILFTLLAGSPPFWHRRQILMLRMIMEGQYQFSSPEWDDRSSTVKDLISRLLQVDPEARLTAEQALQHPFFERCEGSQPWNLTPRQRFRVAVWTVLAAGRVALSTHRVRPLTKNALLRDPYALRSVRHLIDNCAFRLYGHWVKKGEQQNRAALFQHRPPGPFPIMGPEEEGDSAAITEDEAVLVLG

[2] = target: off-target kinases (Homo sapiens, UniProt P53350); settings: PLK1, ZLYTE, ATP Km app
[3] = target: off-target kinases (Homo sapiens, UniProt Q15746); settings: MYLK (MLCK), LanthaScreen Binding
[4] = target: off-target kinases (Homo sapiens, UniProt P11362, V561M); settings: FGFR1 V561M, mutant y, LanthaScreen Binding
[5] = target: off-target kinases (Homo sapiens, UniProt Q86UE8); settings: TLK2, LanthaScreen Binding
[6] = target: off-target kinases (Homo sapiens, UniProt Q9UBF8); settings: PI4KB (PI4K beta), Adapta, ATP Km app
[7] = target: T2, off-target kinases (Homo sapiens, UniProt Q92630); settings: DYRK2, LanthaScreen Binding
T2 sequence (Q92630 1-601): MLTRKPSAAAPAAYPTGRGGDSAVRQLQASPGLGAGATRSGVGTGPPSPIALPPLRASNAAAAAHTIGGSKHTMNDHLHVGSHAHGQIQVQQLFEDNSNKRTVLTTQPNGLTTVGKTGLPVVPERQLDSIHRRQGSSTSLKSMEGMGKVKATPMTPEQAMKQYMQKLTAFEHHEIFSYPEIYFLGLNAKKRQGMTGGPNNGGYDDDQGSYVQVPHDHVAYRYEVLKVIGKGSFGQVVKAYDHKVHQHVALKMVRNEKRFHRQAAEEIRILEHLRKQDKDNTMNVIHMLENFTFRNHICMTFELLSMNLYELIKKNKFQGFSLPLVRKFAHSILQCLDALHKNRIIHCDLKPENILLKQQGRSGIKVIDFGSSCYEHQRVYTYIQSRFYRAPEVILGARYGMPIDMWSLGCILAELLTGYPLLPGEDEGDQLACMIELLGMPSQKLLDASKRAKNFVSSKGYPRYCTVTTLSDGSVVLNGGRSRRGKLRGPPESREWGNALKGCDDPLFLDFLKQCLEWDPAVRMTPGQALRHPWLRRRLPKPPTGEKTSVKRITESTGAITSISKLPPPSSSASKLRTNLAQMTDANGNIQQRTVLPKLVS

[8] = target: off-target kinases (Homo sapiens, UniProt P68400); settings: CSNK2A1 (CK2 alpha 1), ZLYTE, ATP Km app
Sequence of off-target kinases (Homo sapiens, UniProt P68400) (P68400 whole entry): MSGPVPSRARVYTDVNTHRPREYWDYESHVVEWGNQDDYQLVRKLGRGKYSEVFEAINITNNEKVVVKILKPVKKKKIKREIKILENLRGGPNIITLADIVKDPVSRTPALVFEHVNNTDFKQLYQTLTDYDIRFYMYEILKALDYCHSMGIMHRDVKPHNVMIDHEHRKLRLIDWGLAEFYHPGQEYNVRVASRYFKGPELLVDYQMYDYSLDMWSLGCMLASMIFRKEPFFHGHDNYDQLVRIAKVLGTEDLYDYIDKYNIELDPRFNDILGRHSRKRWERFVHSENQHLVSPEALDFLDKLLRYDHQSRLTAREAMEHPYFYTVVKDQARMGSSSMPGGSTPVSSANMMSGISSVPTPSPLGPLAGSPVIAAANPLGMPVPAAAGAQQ

Sequence of off-target kinases (Homo sapiens, UniProt Q9UBF8) (Q9UBF8 whole entry): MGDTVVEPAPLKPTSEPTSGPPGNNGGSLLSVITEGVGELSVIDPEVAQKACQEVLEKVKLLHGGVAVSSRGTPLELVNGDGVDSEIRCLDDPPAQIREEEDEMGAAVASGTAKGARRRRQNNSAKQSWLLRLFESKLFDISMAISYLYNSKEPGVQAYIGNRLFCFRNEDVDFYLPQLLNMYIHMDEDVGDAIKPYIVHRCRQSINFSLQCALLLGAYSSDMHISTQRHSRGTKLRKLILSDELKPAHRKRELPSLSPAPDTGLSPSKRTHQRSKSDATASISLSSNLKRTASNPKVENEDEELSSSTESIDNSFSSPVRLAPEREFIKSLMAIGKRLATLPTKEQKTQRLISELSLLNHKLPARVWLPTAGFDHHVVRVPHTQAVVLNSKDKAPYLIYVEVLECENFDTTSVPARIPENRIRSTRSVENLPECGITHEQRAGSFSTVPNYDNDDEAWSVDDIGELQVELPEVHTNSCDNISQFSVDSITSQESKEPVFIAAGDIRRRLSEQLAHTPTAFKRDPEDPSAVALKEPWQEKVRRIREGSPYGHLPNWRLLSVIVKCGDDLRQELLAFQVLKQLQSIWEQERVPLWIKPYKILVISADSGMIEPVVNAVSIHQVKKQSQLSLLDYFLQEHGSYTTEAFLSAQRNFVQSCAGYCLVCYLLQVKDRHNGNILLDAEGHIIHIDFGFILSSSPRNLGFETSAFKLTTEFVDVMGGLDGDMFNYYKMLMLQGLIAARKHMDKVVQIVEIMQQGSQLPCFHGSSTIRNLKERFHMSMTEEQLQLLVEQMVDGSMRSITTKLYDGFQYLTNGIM
Sequence of off-target kinases (Homo sapiens, UniProt P53350) (P53350 whole entry): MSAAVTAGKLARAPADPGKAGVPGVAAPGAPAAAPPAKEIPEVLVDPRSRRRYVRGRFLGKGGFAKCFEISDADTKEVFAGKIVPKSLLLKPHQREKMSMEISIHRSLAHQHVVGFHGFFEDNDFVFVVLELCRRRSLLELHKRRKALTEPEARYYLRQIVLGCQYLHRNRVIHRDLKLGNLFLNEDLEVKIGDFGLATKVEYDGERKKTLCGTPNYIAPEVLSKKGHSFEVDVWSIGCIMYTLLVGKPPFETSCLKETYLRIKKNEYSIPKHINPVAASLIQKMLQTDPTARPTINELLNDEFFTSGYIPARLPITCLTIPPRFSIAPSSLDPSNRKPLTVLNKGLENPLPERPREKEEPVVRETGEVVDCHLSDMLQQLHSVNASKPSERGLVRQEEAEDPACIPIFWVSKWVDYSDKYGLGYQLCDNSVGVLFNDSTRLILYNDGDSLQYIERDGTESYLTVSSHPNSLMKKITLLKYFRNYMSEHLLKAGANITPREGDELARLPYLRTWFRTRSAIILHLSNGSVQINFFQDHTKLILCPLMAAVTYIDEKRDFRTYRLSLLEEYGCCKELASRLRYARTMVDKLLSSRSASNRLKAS
Sequence of off-target kinases (Homo sapiens, UniProt Q86UE8) (Q86UE8 whole entry): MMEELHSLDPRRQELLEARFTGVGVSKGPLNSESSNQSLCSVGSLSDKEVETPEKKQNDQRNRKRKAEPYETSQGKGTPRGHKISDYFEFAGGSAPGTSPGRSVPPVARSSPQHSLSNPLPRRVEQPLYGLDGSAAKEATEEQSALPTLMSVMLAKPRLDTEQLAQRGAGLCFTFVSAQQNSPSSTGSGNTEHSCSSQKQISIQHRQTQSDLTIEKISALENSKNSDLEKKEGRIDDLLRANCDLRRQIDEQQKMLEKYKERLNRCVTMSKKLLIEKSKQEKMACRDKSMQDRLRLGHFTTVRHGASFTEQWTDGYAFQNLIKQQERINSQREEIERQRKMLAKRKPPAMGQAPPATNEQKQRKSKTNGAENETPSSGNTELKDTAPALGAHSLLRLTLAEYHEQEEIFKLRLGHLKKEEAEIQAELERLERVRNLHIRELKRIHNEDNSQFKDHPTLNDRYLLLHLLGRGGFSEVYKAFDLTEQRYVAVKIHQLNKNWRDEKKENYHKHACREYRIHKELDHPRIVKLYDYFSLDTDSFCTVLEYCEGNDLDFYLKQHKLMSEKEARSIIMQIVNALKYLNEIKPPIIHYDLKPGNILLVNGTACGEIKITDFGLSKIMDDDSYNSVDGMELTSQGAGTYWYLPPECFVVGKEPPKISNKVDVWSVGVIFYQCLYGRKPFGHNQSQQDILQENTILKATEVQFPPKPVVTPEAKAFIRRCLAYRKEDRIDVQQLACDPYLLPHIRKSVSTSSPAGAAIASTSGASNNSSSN
Sequence of off-target kinases (Homo sapiens, UniProt Q15746) (Q15746 whole entry): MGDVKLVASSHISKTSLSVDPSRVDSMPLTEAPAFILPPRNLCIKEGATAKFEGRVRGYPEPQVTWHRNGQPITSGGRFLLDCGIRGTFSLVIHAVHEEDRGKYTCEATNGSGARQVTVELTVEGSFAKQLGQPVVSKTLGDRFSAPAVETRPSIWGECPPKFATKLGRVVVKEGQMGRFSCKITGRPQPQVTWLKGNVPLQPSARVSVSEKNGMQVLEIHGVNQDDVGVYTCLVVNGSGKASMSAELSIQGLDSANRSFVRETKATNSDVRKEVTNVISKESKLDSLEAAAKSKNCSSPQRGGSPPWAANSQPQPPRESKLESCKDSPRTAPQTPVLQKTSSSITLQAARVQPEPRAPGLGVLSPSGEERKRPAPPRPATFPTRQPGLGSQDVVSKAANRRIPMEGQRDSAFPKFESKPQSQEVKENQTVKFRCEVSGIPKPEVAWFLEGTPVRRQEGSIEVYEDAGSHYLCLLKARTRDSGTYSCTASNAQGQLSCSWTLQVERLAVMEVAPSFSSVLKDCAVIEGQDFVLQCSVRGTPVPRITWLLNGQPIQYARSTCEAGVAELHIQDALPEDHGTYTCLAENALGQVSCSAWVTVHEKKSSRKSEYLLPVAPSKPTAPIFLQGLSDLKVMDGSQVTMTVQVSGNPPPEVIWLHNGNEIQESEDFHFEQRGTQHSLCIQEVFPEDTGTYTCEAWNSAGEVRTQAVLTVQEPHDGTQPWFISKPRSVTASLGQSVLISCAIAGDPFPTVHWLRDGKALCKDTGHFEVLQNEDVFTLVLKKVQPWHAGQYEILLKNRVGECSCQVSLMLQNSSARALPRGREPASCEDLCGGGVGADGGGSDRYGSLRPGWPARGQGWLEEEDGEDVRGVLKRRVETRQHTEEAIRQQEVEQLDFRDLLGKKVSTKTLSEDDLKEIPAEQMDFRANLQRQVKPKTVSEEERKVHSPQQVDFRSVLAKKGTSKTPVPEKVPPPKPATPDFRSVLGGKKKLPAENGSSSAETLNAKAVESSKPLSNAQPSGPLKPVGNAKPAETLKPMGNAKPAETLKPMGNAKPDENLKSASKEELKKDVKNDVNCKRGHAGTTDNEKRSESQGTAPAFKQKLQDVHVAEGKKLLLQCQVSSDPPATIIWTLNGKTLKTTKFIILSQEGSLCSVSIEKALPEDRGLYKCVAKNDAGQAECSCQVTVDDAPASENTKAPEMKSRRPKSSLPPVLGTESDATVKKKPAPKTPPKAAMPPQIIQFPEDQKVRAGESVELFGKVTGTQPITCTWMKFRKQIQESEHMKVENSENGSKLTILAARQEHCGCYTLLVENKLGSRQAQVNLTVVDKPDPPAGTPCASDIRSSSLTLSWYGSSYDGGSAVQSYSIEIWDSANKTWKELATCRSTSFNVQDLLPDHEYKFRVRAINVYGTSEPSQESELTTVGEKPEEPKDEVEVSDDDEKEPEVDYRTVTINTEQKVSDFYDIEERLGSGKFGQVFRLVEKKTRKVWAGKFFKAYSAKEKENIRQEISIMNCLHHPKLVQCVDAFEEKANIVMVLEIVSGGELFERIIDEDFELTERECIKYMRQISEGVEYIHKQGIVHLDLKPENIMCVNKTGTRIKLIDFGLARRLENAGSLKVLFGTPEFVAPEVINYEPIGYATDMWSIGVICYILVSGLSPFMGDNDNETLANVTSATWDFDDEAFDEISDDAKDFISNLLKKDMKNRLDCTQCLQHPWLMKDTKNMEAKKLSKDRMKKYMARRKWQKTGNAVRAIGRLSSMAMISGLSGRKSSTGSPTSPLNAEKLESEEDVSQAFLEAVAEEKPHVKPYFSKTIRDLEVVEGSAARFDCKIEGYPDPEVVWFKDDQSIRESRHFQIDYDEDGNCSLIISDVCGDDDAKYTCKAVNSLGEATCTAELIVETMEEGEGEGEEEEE

## N#Cc1cc(-c2ncnc(Nc3ccc(N4CCN(C5COC5)CC4)cc3)n2)ccc1OC1CCOCC1 [Compound 1, 5-(4-((4-(4-(oxetan-3-yl)piperazin-1-yl)phenyl)amino)-1,3,5-triazin-2-yl)-2-((tetrahydro-2H-pyran-4-yl)oxy)benzonitrile]
[1]; read-out: % Inhibition 1
  inhibition: 83%
[1]; read-out: % Inhibition 2
  inhibition: 79%
[1]; read-out: % Inhibition Avg
  inhibition: 81%
[2]; read-out: % Inhibition 1
  inhibition: 12%
[2]; read-out: % Inhibition 2
  inhibition: 9%
[2]; read-out: % Inhibition Avg
  inhibition: 11%
[3]; read-out: % Inhibition 1
  inhibition: 5%
[3]; read-out: % Inhibition 2
  inhibition: 3%
[3]; read-out: % Inhibition Avg
  inhibition: 4%
[4]; read-out: % Inhibition 1
  inhibition: 20%
[4]; read-out: % Inhibition 2
  inhibition: 25%
[4]; read-out: % Inhibition Avg
  inhibition: 23%
[5]; read-out: % Inhibition 1
  inhibition: 84%
[5]; read-out: % Inhibition 2
  inhibition: 81%
[5]; read-out: % Inhibition Avg
  inhibition: 83%
[6]; read-out: % Inhibition 1
  inhibition: 7%
[6]; read-out: % Inhibition 2
  inhibition: 3%
[6]; read-out: % Inhibition Avg
  inhibition: 5%
[7]; read-out: % Inhibition 1
  inhibition: 54%
[7]; read-out: % Inhibition 2
  inhibition: 53%
[7]; read-out: % Inhibition Avg
  inhibition: 54%
[8]; read-out: % Inhibition 1
  inhibition: 13%
[8]; read-out: % Inhibition 2
  inhibition: 7%
[8]; read-out: % Inhibition Avg
  inhibition: 10%
